{
  "source": "paper PMC2697495",
  "about": "(The Journal of pharmacy and pharmacology, 2008)",
  "key": {"[1]": {"test_system": "pooled human liver microsomes (pHLMs)", "details": "pHLMs 0.5 mg protein/ml; β-estradiol 100 μM and UDPGA; mean of triplicate"}, "[2]": {"assay": "Estradiol glucuronide stability in phosphate buffer", "details": "50 mM phosphate buffer pH 7.5, 37 °C, no enzyme; without saccharolactone; E-3-G 100 μM, E-17-G 200 μM; n=3"}, "[3]": {"test_system": "endogenous β-glucuronidase, human intestinal microsomes", "assay": "Estradiol glucuronide hydrolysis by human intestinal microsomes", "details": "for Nmoles degraded as a % of nmoles formed: intestinal microsomes; for Nmoles degraded in 6 hours: intestinal microsomes 0.5 mg protein/ml, estradiol glucuronide without UDPGA; for percent glucuronide remaining after 6 hours: intestine microsomes 0.5 mg/ml, without saccharolactone, E-3-G 100 μM, E-17-G 200 μM, n=3"}, "[4]": {"biological_target": "endogenous β-glucuronidase, human lung microsomes (Homo sapiens, UniProt P08236)", "assay": "Estradiol glucuronide hydrolysis by human lung microsomes", "details": "lung microsomes 0.5 mg/ml; without saccharolactone; E-3-G 100 μM, E-17-G 200 μM; n=3"}, "[5]": {"test_system": "human kidney microsomes", "assay": "Estradiol glucuronide formation in 6 hours by human kidney microsomes", "format": "in vitro ADME", "details": "for Apparent nmoles formed in 6 hours: kidney microsomes 0.5 mg protein/ml, β-estradiol 100 μM and UDPGA, mean of triplicate; for Predicted actual nmoles formed in 6 hours: kidney microsomes, apparent formed plus degraded"}, "[6]": {"test_system": "endogenous β-glucuronidase, HEK293 vector control", "assay": "Estradiol glucuronide hydrolysis by HEK293 vector control cell microsomes", "format": "in vitro ADME, human", "details": "HEK293 control 0.25 mg/ml; without saccharolactone; E-3-G 100 μM, E-17-G 200 μM; n=3"}, "[7]": {"biological_target": "T1, endogenous β-glucuronidase, pooled human liver microsomes (Homo sapiens, UniProt P08236)", "T1 sequence (P08236 23-651)": "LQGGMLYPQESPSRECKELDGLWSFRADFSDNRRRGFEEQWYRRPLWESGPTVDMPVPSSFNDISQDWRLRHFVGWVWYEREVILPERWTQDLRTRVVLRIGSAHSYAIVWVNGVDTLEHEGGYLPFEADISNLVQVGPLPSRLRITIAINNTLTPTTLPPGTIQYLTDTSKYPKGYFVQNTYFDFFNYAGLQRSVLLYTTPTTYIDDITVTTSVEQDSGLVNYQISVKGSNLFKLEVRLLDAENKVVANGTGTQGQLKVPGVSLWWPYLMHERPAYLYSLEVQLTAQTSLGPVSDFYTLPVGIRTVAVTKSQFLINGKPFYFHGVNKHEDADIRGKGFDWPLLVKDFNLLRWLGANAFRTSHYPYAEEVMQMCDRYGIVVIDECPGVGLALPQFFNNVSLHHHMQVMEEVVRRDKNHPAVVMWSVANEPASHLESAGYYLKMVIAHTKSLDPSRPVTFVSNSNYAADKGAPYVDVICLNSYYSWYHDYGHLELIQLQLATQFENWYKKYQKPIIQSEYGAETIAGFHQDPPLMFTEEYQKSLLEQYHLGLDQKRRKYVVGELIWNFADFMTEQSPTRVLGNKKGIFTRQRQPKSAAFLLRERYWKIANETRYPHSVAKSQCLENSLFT", "assay": "Estradiol glucuronide hydrolysis", "details": "for percent glucuronide remaining after 6 hours: pHLM 0.5 mg/ml, E-3-G 100 μM, E-17-G 200 μM, n=3; for Nmoles degraded as a % of nmoles formed: pHLMs; for Nmoles degraded in 6 hours: pHLMs 0.5 mg protein/ml, estradiol glucuronide without UDPGA"}, "[8]": {"test_system": "human intestinal microsomes", "assay": "Estradiol glucuronide formation in 6 hours by human intestinal microsomes", "format": "in vitro ADME", "details": "for Apparent nmoles formed in 6 hours: intestinal microsomes 0.5 mg protein/ml, β-estradiol 100 μM and UDPGA, mean of triplicate; for Predicted actual nmoles formed in 6 hours: intestinal microsomes, apparent formed plus degraded"}, "[9]": {"test_system": "endogenous β-glucuronidase, human kidney microsomes", "assay": "Estradiol glucuronide hydrolysis by human kidney microsomes", "details": "for Nmoles degraded as a % of nmoles formed: kidney microsomes; for Nmoles degraded in 6 hours: kidney microsomes 0.5 mg protein/ml, estradiol glucuronide without UDPGA; for percent glucuronide remaining after 6 hours: kidney microsomes 0.5 mg/ml, without saccharolactone, E-3-G 100 μM, E-17-G 200 μM, n=3"}, "[10]": {"test_system": "microsomes", "details": "50 μg alamethicin per mg microsomal protein, ref Fisher et al 2000; cited from earlier work"}},
  "note": "Marks after values point to notes of the source that are not given here.",
  "data": [
    {"molecule": "C[C@]12CC[C@@H]3c4ccc(O[C@@H]5O[C@H](C(=O)O)[C@@H](O)[C@H](O)[C@H]5O)cc4CC[C@H]3[C@@H]1CC[C@@H]2O", "note": "[E-3-G, estradiol 3-glucuronide]", "values": [
      {"measurement": "Apparent nmoles formed in 6 hours", "setting": "[1]", "result": 3.51, "unit": "nmol"},
      {"measurement": "percent glucuronide remaining after 6 hours", "setting": "[2]", "result": "101±5", "unit": "%"},
      {"measurement": "Nmoles degraded as a % of nmoles formed", "setting": "[3]", "result": 0, "unit": "%"},
      {"measurement": "Nmoles degraded in 6 hours", "setting": "[3]", "result": 0, "unit": "nmol"},
      {"measurement": "percent glucuronide remaining after 6 hours", "setting": "[3]", "result": "104±3", "unit": "%"},
      {"measurement": "percent glucuronide remaining after 6 hours", "setting": "[4]", "result": "85±6", "unit": "%"},
      {"measurement": "Apparent nmoles formed in 6 hours", "setting": "[5]", "result": 2.99, "unit": "nmol"},
      {"measurement": "Predicted actual nmoles formed in 6 hours", "setting": "[5]", "result": 2.99, "unit": "nmol"},
      {"measurement": "percent glucuronide remaining after 6 hours", "setting": "[6]", "result": "102±4", "unit": "%"},
      {"measurement": "percent glucuronide remaining after 6 hours", "setting": "[7]; with 10 mM saccharolactone", "result": "84±2 ^a %"},
      {"measurement": "percent glucuronide remaining after 6 hours", "setting": "[7]; without saccharolactone", "result": "82±1 ^a^, ^b %"},
      {"measurement": "Nmoles degraded as a % of nmoles formed", "setting": "[7]", "result": 9.30, "unit": "%"},
      {"measurement": "Nmoles degraded in 6 hours", "setting": "[7]", "result": 0.36, "unit": "nmol"},
      {"measurement": "Apparent nmoles formed in 6 hours", "setting": "[8]", "result": 16.7, "unit": "nmol"},
      {"measurement": "Predicted actual nmoles formed in 6 hours", "setting": "[8]", "result": 16.7, "unit": "nmol"},
      {"measurement": "Nmoles degraded as a % of nmoles formed", "setting": "[9]", "result": 0, "unit": "%"},
      {"measurement": "Nmoles degraded in 6 hours", "setting": "[9]", "result": 0, "unit": "nmol"},
      {"measurement": "percent glucuronide remaining after 6 hours", "setting": "[9]", "result": "104±1 ^a^, ^b %"}
    ]},
    {"molecule": "C[C@]12CC[C@@H]3c4ccc(O)cc4CC[C@H]3[C@@H]1CC[C@@H]2O[C@@H]1O[C@H](C(=O)O)[C@@H](O)[C@H](O)[C@H]1O", "note": "[E-17-G, estradiol 17-glucuronide]", "values": [
      {"measurement": "Apparent nmoles formed in 6 hours", "setting": "[1]", "result": 1.23, "unit": "nmol"},
      {"measurement": "percent glucuronide remaining after 6 hours", "setting": "[2]", "result": "102±13", "unit": "%"},
      {"measurement": "Nmoles degraded as a % of nmoles formed", "setting": "[3]", "result": 0, "unit": "%"},
      {"measurement": "Nmoles degraded in 6 hours", "setting": "[3]", "result": 0, "unit": "nmol"},
      {"measurement": "percent glucuronide remaining after 6 hours", "setting": "[3]", "result": "110±4 ^b %"},
      {"measurement": "percent glucuronide remaining after 6 hours", "setting": "[4]", "result": "92±6", "unit": "%"},
      {"measurement": "Apparent nmoles formed in 6 hours", "setting": "[5]", "result": 1.11, "unit": "nmol"},
      {"measurement": "Predicted actual nmoles formed in 6 hours", "setting": "[5]", "result": 1.11, "unit": "nmol"},
      {"measurement": "percent glucuronide remaining after 6 hours", "setting": "[6]", "result": "104±3", "unit": "%"},
      {"measurement": "percent glucuronide remaining after 6 hours", "setting": "[7]; with 10 mM saccharolactone", "result": "84±3", "unit": "%"},
      {"measurement": "percent glucuronide remaining after 6 hours", "setting": "[7]; without saccharolactone", "result": "86±2 ^b %"},
      {"measurement": "Nmoles degraded in 6 hours", "setting": "[7]", "result": 0.29, "unit": "nmol"},
      {"measurement": "Nmoles degraded as a % of nmoles formed", "setting": "[7]; listed as Estradiol-17-Glucuronide", "result": 19, "unit": "%"},
      {"measurement": "Nmoles degraded as a % of nmoles formed", "setting": "[7]; listed as estradiol-17 glucuronide", "result": 19, "unit": "%"},
      {"measurement": "Apparent nmoles formed in 6 hours", "setting": "[8]", "result": 0.58, "unit": "nmol"},
      {"measurement": "Predicted actual nmoles formed in 6 hours", "setting": "[8]", "result": 0.58, "unit": "nmol"},
      {"measurement": "Nmoles degraded as a % of nmoles formed", "setting": "[9]", "result": 0, "unit": "%"},
      {"measurement": "Nmoles degraded in 6 hours", "setting": "[9]", "result": 0, "unit": "nmol"},
      {"measurement": "percent glucuronide remaining after 6 hours", "setting": "[9]", "result": "104±3", "unit": "%"}
    ]},
    {"molecule": "alamethicin", "values": [
      {"measurement": "conjugation rate relative to that in absence of alamethicin", "setting": "[10]", "result": "2 to 3", "unit": "times"}
    ]}
  ]
}
